Data as given in patent US20090186832A1 (priority 2008, published 2009).
Where a name gives a salt, the structure may show the parent alone. Read-outs that look alike come from different tables or passages of the source.

Columns and labels:
[1] = dog, in vivo
in vivo [2] = conditions: dog
[3] = dog, in vivo, po
in vivo [4] = conditions: beagle, dog, po, 1 mg, Meptazinol AUCt
[5] = cited from earlier work

CC(C)[C@H](NC(=O)Oc1ccc2c3c1OC1C(=O)CC[C@@]4(O)[C@@H](C2)N(C)CC[C@]314)C(=O)O (stereo partly drawn) [Oxymorphone valine carbamate HCl, (S)-2-[(4,5-Epoxy-14-hydroxy-17-methylmorphinan-6-one-3-yl)-oxycarbonylamino]-3-methylbutanoic acid Hydrochloride]
Mean relative bioavailability % ([1]; Beagle, 0.5 mg/kg): 816% | Cmax (mean ng/mL ± SD) ([1]; Beagle, po, 0.5 mg/kg): 21.6 ± 7.2 ng/mL | plasma levels of the prodrug relative to the drug itself ([1]; beagle, po): approx. 4 fold | AUC (mean ngh/mL ± SD) ([1]; po): 94.4 ± 33.3 | time for which plasma drug levels were maintained above 50% of Cmax, prodrug vs drug itself ([1]; po): almost twice as long | AUC (in vivo [2]; Beagle, po, 0.5 mg, Oxymorphone valine carbamate AUC): 234 ng·h/mL | AUC(0-t) (in vivo [2]; Beagle, po, 0.5 mg, Oxymorphone valine carbamate AUCt): 232 ng·h/mL | Cmax (in vivo [2]; Beagle, po, 0.5 mg, Oxymorphone valine carbamate Cmax): 75 ng/mL

CCC1(c2cccc(O)c2)CCCCN(C)C1 (centres unmarked) [Meptazinol HCl]
AUC (mean ngh/mL ± SD) [3]: 15.6 ± 7.4 | AUC(0-t) (in vivo [4]): 5.87 ng·h/mL

CN1CC[C@]23c4c5ccc(O)c4O[C@H]2C(=O)CC[C@@]3(O)[C@H]1C5 [oxymorphone, 14-hydroxydihydromorphinone]
half life ([5]; Adams and Ahdieh (2005)): ~7 h | food effect: increase of Cmax values ([5]; Opana FDA labeling): ≤ 38% | absolute oral bioavailability ([5]; Sloan et al. (2005)): 10% | AUC (in vivo [2]; iv, intravenous AUC value): 146 ng·h/mL
